This test has as its system L1210 leukemia ip in BDF1 mice, survival T/C. In words: NCI In Vivo Anticancer Drug Screen. Data for tumor model L1210 Leukemia (intraperitoneal) in B6D2F1 (BDF1) mice. To be noted: endpoint: mean survival time, higher = longer survival. In outline:
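Mice bearing the transplanted tumor received compound or vehicle. Survival of the treated group was divided by that of the vehicle-treated control group to give the ratio.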

The mark [1] stands for this setting: dose: 100.0 mg/kg/injection, schedule: Q01DX001 (ip), vehicle: carboxymethylcellulose (CMC).
Setting [2] is: dose: 200.0 mg/kg/injection, schedule: Q01DX001 (ip), vehicle: carboxymethylcellulose (CMC).
The mark [3] stands for this setting: dose: 400.0 mg/kg/injection, schedule: Q01DX001 (ip), vehicle: carboxymethylcellulose (CMC).
Setting [4] is: dose: 100.0 mg/kg/injection, schedule: Q01DX001 (ip), vehicle: saline.
Where [5] appears, read: dose: 200.0 mg/kg/injection, schedule: Q01DX001 (ip), vehicle: saline.
Setting [6] is: dose: 400.0 mg/kg/injection, schedule: Q01DX001 (ip), vehicle: saline.
[7] abbreviates: dose: 100.0 mg/kg/injection, schedule: Q04DX002 (ip), vehicle: saline.

Values joined by “and” are separate entries in the source; they are usually repeats but may differ in a detail not shown here. Equal entries are not always repeated. Inconclusive results and toxic doses are left out.

For the molecule `C/C(=N\N=C(/C)c1c(C)c([N+](=O)[O-])c(C(C)(C)C)c([N+](=O)[O-])c1C)c1c(C)c([N+](=O)[O-])c(C(C)(C)C)c([N+](=O)[O-])c1C`, the T/C (dose: 100.0 mg/kg/injection, schedule: Q04DX002 (ip), vehicle: Klucel (hydroxypropylcellulose) (HPC)) is 97 % of control; the T/C (dose: 200.0 mg/kg/injection, schedule: Q04DX002 (ip), vehicle: Klucel (hydroxypropylcellulose) (HPC)) is 94 % of control; the T/C (dose: 400.0 mg/kg/injection, schedule: Q04DX002 (ip), vehicle: Klucel (hydroxypropylcellulose) (HPC)) is 97 % of control.

Regarding `CC(C)CN(CC(C)C)C(=O)CCl`, the T/C under setting [1] was 106 % of control.

For the molecule `CC(=O)CC(=O)Nc1cccc(Cl)c1C`, the T/C was 89 % of control (dose: 100.0 mg/kg/injection, schedule: Q01DX009 (ip), vehicle: Klucel (hydroxypropylcellulose) (HPC)) and 89 % of control (dose: 200.0 mg/kg/injection, schedule: Q01DX009 (ip), vehicle: Klucel (hydroxypropylcellulose) (HPC)).

`COc1ccc2[nH]c3c(C)c4cc[n+](C)cc4c(C)c3c2c1`: the T/C was 105 % of control (dose: 6.25 mg/kg/injection, schedule: Q04DX003 (ip), vehicle: saline sonified); 115 % of control (dose: 10.0 mg/kg/injection, schedule: Q04DX003 (ip), vehicle: saline); 122 % of control (dose: 12.5 mg/kg/injection, schedule: Q04DX003 (ip), vehicle: saline sonified); 88 % of control (dose: 20.0 mg/kg/injection, schedule: Q04DX003 (ip), vehicle: saline).

Take `N=C(N)c1nn(C2OC(CO)C(O)C2O)c2ncnc(N)c12` (centres undefined): the T/C was 102 % of control (dose: 3.12 mg/kg/injection, schedule: Q01DX009 (ip), vehicle: Klucel (hydroxypropylcellulose) (HPC)); 124 % of control (dose: 6.25 mg/kg/injection, schedule: Q01DX009 (ip), vehicle: Klucel (hydroxypropylcellulose) (HPC)); 159 % of control (dose: 9.0 mg/kg/injection, schedule: Q01DX005 (ip), vehicle: saline); 115 % of control (dose: 12.5 mg/kg/injection, schedule: Q01DX009 (ip), vehicle: Klucel (hydroxypropylcellulose) (HPC)); 185 % of control (dose: 15.0 mg/kg/injection, schedule: Q01DX005 (ip), vehicle: saline); 201 % of control (dose: 25.0 mg/kg/injection, schedule: Q01DX005 (ip), vehicle: saline). Also, under “dose: 42.0 mg/kg/injection, schedule: Q01DX005 (ip), vehicle: saline”, the T/C was 204 % of control.

On to `CC(C)CCCCCCCCCCCCC(=O)NCC(=O)NC1C(O)C(O)C(Nc2ncnc3nc[nH]c23)OC1C(O)CO` (centres undefined), for which the T/C (dose: 0.3 mg/kg/injection, schedule: Q## X000 (ip), vehicle: carboxymethylcellulose (CMC)) is 100 % of control; the T/C (dose: 0.4 mg/kg/injection, schedule: Q01DX Z (ip), vehicle: carboxymethylcellulose (CMC)) was 107 % of control; the T/C (dose: 0.44 mg/kg/injection, schedule: Q## X000 (ip), vehicle: carboxymethylcellulose (CMC)) is 107 % of control; the T/C (dose: 0.6 mg/kg/injection, schedule: Q01DX Z (ip), vehicle: carboxymethylcellulose (CMC)) is 104 % of control; the T/C (dose: 0.66 mg/kg/injection, schedule: Q## X000 (ip), vehicle: carboxymethylcellulose (CMC)) is 98 % of control; the T/C (dose: 0.9 mg/kg/injection, schedule: Q01DX Z (ip), vehicle: carboxymethylcellulose (CMC)) was 103 % of control. The T/C was 101 % of control (dose: 1.0 mg/kg/injection, schedule: Q01DX001 (ip), vehicle: saline); 110 % of control (dose: 1.0 mg/kg/injection, schedule: Q## X000 (ip), vehicle: carboxymethylcellulose (CMC)); 107 % of control (dose: 1.35 mg/kg/injection, schedule: Q01DX Z (ip), vehicle: carboxymethylcellulose (CMC)); 98 % of control (dose: 2.0 mg/kg/injection, schedule: Q01DX001 (ip), vehicle: saline); 98 % of control (dose: 4.0 mg/kg/injection, schedule: Q01DX001 (ip), vehicle: saline); 101 % of control (dose: 8.0 mg/kg/injection, schedule: Q01DX001 (ip), vehicle: saline). Further, the T/C was 105 % of control (dose: 12.0 mg/kg/injection, schedule: Q01DX001 (ip), vehicle: saline); 112 % of control (dose: 18.0 mg/kg/injection, schedule: Q01DX001 (ip), vehicle: saline); 96 % of control (dose: 27.0 mg/kg/injection, schedule: Q01DX001 (ip), vehicle: saline).

Take `CC1CCc2c(O)ccc(O)c21` (centres undefined): the T/C under setting [1] was 102 % of control, the T/C under setting [2] was 96 % of control and the T/C under setting [3] is 94 % of control.

In the case of `Nc1ccc(N=Nc2c(Br)cc(S(N)(=O)=O)cc2Br)c(N)n1`, the T/C is, setting by setting: under setting [4], 102 % of control; under setting [5], 100 % of control; under setting [6], 94 % of control.

Regarding `CC(C)CCCCCc1ccc(OCCOc2ccc(C(=O)Nc3ccc(S(=O)(=O)F)cc3N)cc2)cc1`, the T/C is, setting by setting: (dose: 100.0 mg/kg/injection, schedule: Q01DX009 (ip), vehicle: saline sonified) 107 % of control; (dose: 100.0 mg/kg/injection, schedule: Q04DX003 (ip), vehicle: Klucel (hydroxypropylcellulose) (HPC)) 98 % of control; (dose: 200.0 mg/kg/injection, schedule: Q01DX009 (ip), vehicle: saline sonified) 100 % of control; (dose: 200.0 mg/kg/injection, schedule: Q04DX003 (ip), vehicle: Klucel (hydroxypropylcellulose) (HPC)) 96 % of control; (dose: 400.0 mg/kg/injection, schedule: Q01DX009 (ip), vehicle: saline sonified) 98 % of control; (dose: 400.0 mg/kg/injection, schedule: Q04DX003 (ip), vehicle: Klucel (hydroxypropylcellulose) (HPC)) 94 % of control.

As for `CC(=O)NC(C)C(=O)O` (centres undefined), the T/C is, setting by setting: under setting [4], 90 % of control and 92 % of control; (dose: 100.0 mg/kg/injection, schedule: Q01DX009 (ip), vehicle: saline) 100 % of control and 111 % of control and 103 % of control; under setting [7], 96 % of control and 111 % of control and 92 % of control; (dose: 100.0 mg/kg/injection, schedule: Q04DX003 (ip), vehicle: saline) 89 % of control and 103 % of control; under setting [5], 106 % of control and 93 % of control; (dose: 200.0 mg/kg/injection, schedule: Q01DX009 (ip), vehicle: saline) 93 % of control and 92 % of control and 97 % of control. The T/C runs as follows: (dose: 200.0 mg/kg/injection, schedule: Q04DX002 (ip), vehicle: saline) 105 % of control and 93 % of control and 94 % of control; (dose: 200.0 mg/kg/injection, schedule: Q04DX003 (ip), vehicle: saline) 90 % of control and 98 % of control; under setting [6], 94 % of control and 93 % of control; (dose: 400.0 mg/kg/injection, schedule: Q01DX009 (ip), vehicle: saline) 90 % of control and 92 % of control and 100 % of control; (dose: 400.0 mg/kg/injection, schedule: Q04DX002 (ip), vehicle: saline) 96 % of control and 94 % of control and 101 % of control; (dose: 400.0 mg/kg/injection, schedule: Q04DX003 (ip), vehicle: saline) 94 % of control and 103 % of control.

As to `Cc1c(NC(C)C)ccc(NC(C)C)c1C`, the T/C is 100 % of control (dose: 100.0 mg/kg/injection, schedule: Q04DX002 (sc), vehicle: olive oil, sesame oil, peanut oil) and 100 % of control (dose: 200.0 mg/kg/injection, schedule: Q04DX002 (sc), vehicle: olive oil, sesame oil, peanut oil).

With `Nc1ccc(OCc2ccccc2)cc1`, the T/C runs as follows: (dose: 50.0 mg/kg/injection, schedule: Q01DX009 (ip), vehicle: saline with Tween-80) 96 % of control; (dose: 50.0 mg/kg/injection, schedule: Q04DX003 (ip), vehicle: saline with Tween-80) 100 % of control; (dose: 100.0 mg/kg/injection, schedule: Q01DX009 (ip), vehicle: saline with Tween-80) 87 % of control; (dose: 100.0 mg/kg/injection, schedule: Q04DX003 (ip), vehicle: saline with Tween-80) 103 % of control; (dose: 200.0 mg/kg/injection, schedule: Q04DX003 (ip), vehicle: saline with Tween-80) 109 % of control.

Turning to `CC(NC(=O)CCN)C(=O)O` (centres undefined), the T/C was 96 % of control (dose: 25.0 mg/kg/injection, schedule: Q04DX002 (ip), vehicle: saline); 89 % of control (dose: 50.0 mg/kg/injection, schedule: Q04DX002 (ip), vehicle: saline); 102 % of control under setting [7].

With `COc1ccc(-c2oc3ccccc3c(=O)c2O)cc1`, the T/C is, setting by setting: (dose: 50.0 mg/kg/injection, schedule: Q01DX001 (ip), vehicle: saline) 104 % of control; under setting [4], 101 % of control; under setting [5], 106 % of control; under setting [6], 98 % of control.

As for `CCCCCC(=O)OC1CCCCC1C1CCCCC1` (centres undefined), the T/C is, setting by setting: (dose: 50.0 mg/kg/injection, schedule: Q01DX001 (ip), vehicle: carboxymethylcellulose (CMC)) 96 % of control; under setting [1], 94 % of control; under setting [2], 100 % of control; under setting [3], 96 % of control.

The record behind these values is PubChem BioAssay AID248 (DTP/NCI, 2004).
